According to patent US5378700A, “Fused pyrimidine derivative, process for preparation of same and pharmaceutical preparation comprising same as active ingredient” (Teijin Limited, priority 1989, dated 1995):

Assays:
Assay type in all cases: in vivo, Male Wistar strain rats
[1] = system: hypoxemia model animals (carbon powder); experiment: Effect on partial pressure of gases in arterial blood, intravenous, Method A (carbon powder induced hypoxemia); settings: intravenous 0.1 mg/kg/min, 10 min, after minus before administration
Procedure: (§1) Example 75: Effect on Partial Pressure Value of Gases in Arterial Blood (Intravenous Injection System)
Male Wistar strain rats (body weight about 300 g) were anesthetized intra-peritonealy with urethane, and a cannula was inserted into the respiratory tract and the femoral artery, respectively. A suspension (30-100 μm, 10 mg/ml) of carbon powder in a corn oil was intratrachealy injected to induce a hypoxemia state (PaO2 : 50-60 mmHg). A compound in the present invention was continuously injected into these hypoxemia model animals intravenously (0.1 mg/kg/min, 10 min), and then a partial pressure value of gases (PaO2, PaCO2) in arterial blood was immediately determined.

[2] = system: hypoxemia model animals (acetic acid); experiment: Effect on partial pressure of gases in arterial blood, intravenous, Method B (acetic acid induced hypoxemia); settings: 2.0% acetic acid, intravenous 0.1 mg/kg/min, 10 min, after minus before administration
Procedure: as §1
Male Wistar strain rats (body weight about 300 g) were anesthetized with halothane inhalant, and then 2.0% acetic acid was intratrachealy injected at 0.6 ml/kg to induce a respiratory insufficiency. The animals were intraperitonealy anesthetized with urethane-α-chloralose, and a cannula was inserted into the femoral artery. After the hypoxemic state (PaO2 : 60-70 mmHg) was observed a compound in accordance with the present invention (test substance) was continuously injected into these hypoxemia model animals intravenously (0.1 mg/kg/min, 10 min), and then a partial pressure value of gases (PaO2, PaCO2) in arterial blood was immediately determined.

[3] = system: hypoxemia state (acetic acid); experiment: Effect on partial pressure of gases in arterial blood, oral administration (acetic acid induced hypoxemia); settings: 2.0% acetic acid, 60 min after administration
Procedure: Example 76: Effect on Partial Pressure Value of Gases in Arterial Blood (Oral Administration System)
Male Wistar strain rats (body weight about 250 g) fasted overnight were anesthetized with halothane inhalant, and then a cannula was inserted into the femoral artery. After the animals recovered from the anesthesia, they were again anesthetized with halothane inhalant, and then 2.0% acetic acid was intratrachealy injected at 0.8 ml/kg to induce a hypoxemia state. After the hypoxemic state was observed over about 60 min., a compound in accordance with the present invention (test substance) was orally administered to the animals. On 60 min. after the administration, the partial pressure value of gases (PaO2, PaCO2) in arterial blood was determined.

Row | SMILES | PaCO2 Decreasing Activity ΔPaCO2 [1] | PaO2 Increasing Activity ΔPaO2 [1] | PaCO2 Decreasing Activity ΔPaCO2 [2] | PaO2 Increasing Activity ΔPaO2 [2] | PaCO2 Decreasing Activity ΔPaCO2 [3] | PaO2 Increasing Activity ΔPaO2 [3]
1 | C=C(C)CNc1nc2c(c(N3CCN(C(c4ccc(F)cc4)c4ccc(F)cc4)CC3)n1)CCCN2 [Compound 112] | -2.0 mmHg | +4.6 mmHg |  |  |  | 
2 | C=CCNc1nc(NCC=C)c2c(n1)N(C)CCC2 [Compound 121] |  |  | -1.2 mmHg | +15.9 mmHg | + (-3--6 mmHg) | ++ (+6-+9 mmHg)
3 | C=CCNc1nc2c(c(N3CCCC3)n1)CCCN2CC=C [Compound 143] |  |  | -0.7 mmHg | +8.1 mmHg | ± (0--3 mmHg) | + (+3-+6 mmHg)
4 | C=CCNc1nc2c(c(N3CCCCC3)n1)CCCN2CC=C [Compound 145] |  |  | -0.8 mmHg | +11.2 mmHg | ± (0--3 mmHg) | + (+3-+6 mmHg)
5 | C=CCNc1nc2c(c(N3CCC(c4ccccc4)CC3)n1)CCCN2CC=C [Compound 146] |  |  | +2.5 mmHg | +6.6 mmHg |  | 
6 | C=CCNc1nc2c(c(N3CCCCCC3)n1)CCCN2CC=C [Compound 153] |  |  | -0.9 mmHg | +10.0 mmHg |  | 
7 | C=CCNc1nc2c(c(N3CCN(C)CC3)n1)CCCN2CC=C [Compound 155] |  |  | +2.6 mmHg | +6.6 mmHg | + (-3--6 mmHg) | ++ (+6-+9 mmHg)
8 | C=CCNc1nc2c(c(N3CCN(C(c4ccc(F)cc4)c4ccc(F)cc4)CC3)n1)CCCN2CC=C [Compound 159] | +0.4 mmHg | +4.8 mmHg |  |  |  | 
9 | C=CCNc1nc(NCC=C)c2c(n1)N(CC=C)CCC2 [Compound 168] |  |  | -12.2 mmHg | +14.4 mmHg |  | 
10 | C=CCNc1nc(NCCc2ccccc2)c2c(n1)N(CC=C)CCC2 [Compound 171] |  |  | -13.4 mmHg | +17.4 mmHg | ± (0--3 mmHg) | + (+3-+6 mmHg)
11 | C=CCNc1nc(N(C)C)c2c(n1)N(CC=C)CCC2 [Compound 184] |  |  | -3.2 mmHg | +10.4 mmHg |  | 
12 | C=CCNc1nc(N(C)Cc2ccccc2)c2c(n1)N(CC=C)CCC2 [Compound 189] |  |  | -7.6 mmHg | +16.0 mmHg |  | 
13 | C=CCNc1nc(SC(C)c2ccccc2)c2c(n1)N(CC=C)CCC2 (stereo not drawn) [Compound 203] |  |  | -2.1 mmHg | +9.5 mmHg |  | 
14 | C=CCNc1nc(SCCc2ccccc2)c2c(n1)N(CC=C)CCC2 [Compound 204] |  |  | +2.2 mmHg | +15.0 mmHg |  | 
15 | C=CCNc1nc2c(c(N3CCOCC3)n1)CCCN2CC=C [Compound 209] |  |  | -2.4 mmHg | +7.6 mmHg | + (-3--6 mmHg) | + (+3-+6 mmHg)
16 | C=CCNc1nc(N2CC=CCC2)c2c(n1)N(CC=C)CCC2 [Compound 213] |  |  | -2.9 mmHg | +10.3 mmHg |  | 
17 | C=CCNc1nc2c(c(N3CCc4ccccc4C3)n1)CCCN2CC=C [Compound 214] |  |  | +2.2 mmHg | +9.8 mmHg |  | 
18 | C=CCNc1nc(NCC=C)c2c(n1)N(Cc1ccccc1)CCC2 [Compound 233] |  |  | -4.0 mmHg | +8.6 mmHg |  | 
